Assay results taken from patent publication US7344706B2, “UV absorber compositions comprising a hydroxyphenyltriazine compound” (Ciba Specialty Chemicals Corp., priority 2002, dated 2008).

Tests used:
[1] = Solubility in cosmetic oils; type: physicochemical; conditions: percentages refer to weight
[2] = Spectral properties (UV absorption); type: physicochemical
Source text: Spectral Properties: [table]

solubility in di-C12-C13alkylmalates ([1]; solvent di-C12-C13alkylmalates): > 25% | solubility in glyceryl-trioctanoate ([1]; solvent glyceryl-trioctanoate): > 30% | ε [2]: 50443 liters/(mol/cm) | λmax [2]: 322 nm | E [1%, 1 cm] (in dioxane) ([2]; in dioxane): 681.62
Structure (SMILES): CCCCC(CC)COc1ccc(-c2nc(-c3ccc(OC)cc3)nc(-c3ccc(OCC(CC)CCCC)cc3OCC(CC)CCCC)n2)c(O)c1 (centres unmarked) [Example 1, 2-((2,4-(2-ethyl-hexyloxy)-phenyl))-4-((2-hydroxy-4-(2-ethyl-hexyloxy)-phenyl))-6-(4-methoxyphenyl)-(1,3,5)-triazine]
